Experimental data: EP4438596A1, “DIAMINOPYRIMIDINE DERIVATIVES AS HDAC AND DHFR DUAL-TARGETING INHIBITORS AND USE THEREOF IN PREVENTING AND TREATING MALARIA” (Université de Lille, priority 2023, dated 2024)
Where two headings read alike, the source gives them in different places.

Tests used:
[1] = test system: P. falciparum 3D7-infected erythrocytes; assay: Plasmodium falciparum growth inhibition assay (SYBR Green I, flow cytometry), drug-sensitive strain; type: cell-based; settings: Plasmodium falciparum, 3D7, Erythrocyte, 48 h incubation
Method: (§1) Plates were incubated under standard P. falciparum culture conditions for 48 h. […] Fixed parasitized red blood cells (RBC) were stored at 4 °C in the dark until flow cytometry analysis. Parasite growth was assessed by flow cytometry on a BD FACS Cantoll (BD Biosciences) or a Attune™ NxT Flow Cytometer (Invitrogen). Cell doublets were excluded from the analysis using a forward scatter (FSC)-width versus FSC-area dot plot. Infected and uninfected erythrocytes were gated on the basis of their FSC and side scatter (SSC) signals. Fluorescence analysis (Green fluorescence FITC) was performed using BD FACSDiva software (BD Biosciences) on a total of 200,000 acquired events. […] Fluorescence of non-infected RBC was adjusted to plot between 10° and 10^2. Results are expressed as the percentage of growth inhibition.
(§2) All IC50 values were calculated using log-linear interpolation (www.antimalarial-icestimator.net), with mean values (± SD) determined over at least two independent experiments.

[2] = test system: multidrug-resistant P. falciparum line Dd2; assay: Plasmodium falciparum growth inhibition assay (SYBR Green I, flow cytometry), multidrug-resistant line; type: cell-based; settings: line resistant to CQ, PYR and mefloquine, mean ± SD
Method: as §1, §2

[3] = test system: P. berghei ANKA parasites; assay: Peters 4-day suppressive test, oral efficacy in P. berghei-infected mice; type: in vivo, Plasmodium berghei; settings: for activity in vivo against Plasmodium berghei / number of mice showing blood parasites / parasitemia (mean ± sd): Balb/C mice; for parasites in treated mice, follow-up: until the end of the experiments; for parasite clearance after oral administration: 10 mg/kg
Method: Compounds powder was dissolved in DMSO and sonicated for 10 min. Appropriate volume of 50%W/v HPβCD was added dropwise under gentle swirling. After 10 min sonication, DPBS was added dropwise under gentle swirling and the mixture was sonicated again for 10 min. After checking the pH (5.5 - 7), the solution was filtered (0.22µm) and conserved at room temperature for max 2 days. Final concentration of compounds was 2.5 mg/mL, 1 mg/mL or 0.1 mg/mL for mice treatment with 25 mg/kg, 10 mg/kg or 1mg/kg doses.
10 weeks-old Balb/C male mice were purchased from Janvier Labs.
P. berghei ANKA parasites stabilates conserved in liquid nitrogen were thawed and injected intraperitoneally (ip) into 2-3 mice (10^6 infected red blood cells (RBC) / mouse). When parasitemia reached 3-5%, mice were bled and groups of six BALB/c male mice were infected with 10^6 P. berghei ANKA parasites (day 0), and treated per os (p.o.) twice a day on days 0, 1, 2 and 3. […] On day 4 post infection (p.i.), the peripheral blood parasitemia of all mice was evaluated via microscopic examination of Giemsa-stained thin blood smears. Parasitemia was then followed for two weeks.

HEK293 cells = assay: Cytotoxicity on HEK293 cells (Alamar Blue); type: cell-based, Human; settings: ratio of the minimum inhibitory concentration of HEK293 cells (50 µM) to the IC50 of Pf3D7
Method: Cells were seeded out at 1.5 × 10^3 cells per well in a 96-well cell culture plate (TPP, Switzerland).
After 24 h, Alamar Blue reagent (Invitrogen, CA) was added according to the manufacturer's instructions and incubated again for 21 h before samples were analyzed.

[4] = mean ± SD, n ≥ 2, read-out: Pf3D7 IC50
[5] = Plasmodium falciparum, DD2, 48 h, n ≥ 2, read-out: PfDd2 IC50
[6] = Experiment 3, 1 mg/kg p.o. twice a day on days 0-3, day 4 p.i.
[7] = Experiment 3, 1 mg/kg p.o. twice a day on days 0-3, day 5 p.i.
[8] = Experiment 3, 1 mg/kg p.o. twice a day on days 0-3, day 6 p.i.
[9] = Experiment 3, 1 mg/kg p.o. twice a day on days 0-3, day 7 p.i.
[10] = Experiment 3, 1 mg/kg p.o. twice a day on days 0-3, day 8 p.i.
[11] = Experiment 3, 1 mg/kg p.o. twice a day on days 0-3, day 10 p.i.
[12] = Experiments 1 and 2, 10 mg/kg p.o. twice a day on days 0-3, day 4 p.i.
[13] = Experiments 1 and 2, 10 mg/kg p.o. twice a day on days 0-3
[14] = Experiment 2 (Fig. 2), 10mg/kg orally twice a day on days 0,1,2,3

SMILES | IC50 [1, 4] [nM] | IC50 ([1]; read-out: IC50 (Pf3D7)) [nM] | IC50 [2, 5] [nM] | parasites in treated mice [3, 6] | number of mice showing blood parasites [3, 6] | parasitemia (mean ± sd) [3, 6] [%] | number of mice showing blood parasites [3, 7] | parasitemia (mean ± sd) [3, 7] | number of mice showing blood parasites [3, 8] | parasitemia (mean ± sd) [3, 8] | number of mice showing blood parasites [3, 9] | parasitemia (mean ± sd) [3, 9] | number of mice showing blood parasites [3, 10] | parasitemia (mean ± sd) [3, 10] | number of mice showing blood parasites [3, 11] | parasitemia (mean ± sd) [3, 11] | parasites in treated mice [3, 12] | parasites in treated mice, follow-up [3, 13] | parasite clearance after oral administration [3] | Selectivity Index HEK293 / Pf3D7 (HEK293 cells) | further results
CCc1nc(N)nc(N)c1OCCCOc1ccccc1CCC(=O)NO.Cl [1·HCl, 3-(2-[3-(2,4-Diamino-6-ethylpyrimidin-5-yloxy)propoxy]phenyl)-N-hydroxypropanamide hydrochloride] | 0.17 ± 0.018 | < 0.2 | 19.8 ± 0.9 | undetectable | 0/6 | 0 | 1/6 | 0,07 ± 0,16% | 1/6 | 0,15 ± 0,37% | 1/6 | 0,31 ± 0,76% | 1/6 | 1,31 ± 3,21% | 1/6 | 0,7 ± 1,72% | undetectable | remained undetectable | achieved parasite clearance |  | activity in vivo against Plasmodium berghei ([3]; Experiment 1 (Fig. 1), 10mg/kg and 25mg/kg orally twice a day on days 0,1,2,3): active in vivo
CCc1nc(N)nc(N)c1OCCOc1ccccc1CCC(=O)NO.Cl [2·HCl, 3-(2-[2-(2,4-Diamino-6-ethylpyrimidin-5-yloxy)ethoxy]phenyl)-N-hydroxypropanamide hydrochloride] | 11.4 ± 7.9 |  |  |  |  |  |  |  |  |  |  |  |  |  |  |  |  |  |  | > 4.4E+06 | 
CCc1nc(N)nc(N)c1OCCCOc1cccc(C(=O)NO)c1.Cl [8·HCl, 3-[3-(2,4-Diamino-6-ethylpyrimidin-5-yloxy)propoxy]-N-hydroxybenzamide hydrochloride] | 0.845 ± 0.108 |  | 138 | undetectable | 0/6 | 0 | 0/6 | 0% | 2/6 | 0,08 ± 0,13% | 2/6 | 0,32 ± 0,49% | 3/6 | 1,37 ± 2,07% | 4/6 | 2,41 ± 2,84% | undetectable | remained undetectable | achieved parasite clearance |  | IC50 ([2]; 48 h, n ≥ 2, listed as 8, hydrochloride, read-out: PfDd2 IC50): 138 ± 25.4 nM; activity in vivo against Plasmodium berghei [3, 14]: active in vivo; ranking of activity against P. berghei infection ([3]; Experiment 3, 1 mg/kg p.o. twice a day on days 0-3): most active
CCc1nc(N)nc(N)c1OCCCOc1ccccc1/C=C/C(=O)NO.Cl [13·HCl, (E)-3-{2-[3-(2,4-Diamino-6-ethylpyrimidin-5-yloxy)propoxy]phenyl}-N-hydroxyacrylamide hydrochloride] | 0.081 ± 0.043 | < 0.1 | 11.1 ± 7.2 |  | 2/6 |  | 3/6 | 0,55 ± 0,83% | 4/6 | 2,05 ± 2,37% | 5/6 | 2,39 ± 2,22% | 5/6 | 3,94 ± 3,06% | 5/5 | 6,02 ± 2,66% | undetectable | remained undetectable | achieved parasite clearance |  | activity in vivo against Plasmodium berghei [3, 14]: active in vivo; parasitemia (mean ± sd) ([3]; Experiment 3, 1 mg/kg p.o. twice a day on days 0-3, day 4 p.i., hydrochloride, 1 mg/kg): 0,12 ± 0,18%; parasitemia (mean ± sd) ([3]; Experiment 3, 1 mg/kg p.o. twice a day on days 0-3, day 4 p.i., listed as 13, hydrochloride, 1 mg/kg): 0.12%
CCc1nc(N)nc(N)c1OCCCOc1cccc(C(=O)NOCc2ccccc2)c1 [Compound 12, N-(Benzyloxy)-3-[3-(2,4-diamino-6-ethylpyrimidin-5-yloxy)propoxy]benzamide] | 4.84 ± 1.05 |  |  |  |  |  |  |  |  |  |  |  |  |  |  |  |  |  |  | > 1.0E+07 | 
